Source: the supplement of paper PMC10307832

compound: NCC(=O)Nc1ccc(-n2nc(C(F)(F)F)cc2-c2ccc3c(ccc4ccccc43)c2)cc1 + Nc1ncn([C@H]2C[C@H](O)[C@@H](CO)O2)c(=O)n1 [Decitabine] (partner 2 µM); test: relative viability (nuclei count vs DMSO), 5 days (fraction); higher = more cells survive; conditions: first compound 2 µM
Method in brief: (§1)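 Relative viability was taken as the ratio of nuclei in treated wells to nuclei in vehicle wells. Lung cancer cell lines in 1536-well plates received compounds by pin tool one day after seeding, either one drug alone or a fixed anchor-drug dose plus five library-drug doses (not always all listed) in √10 steps. Nuclei were counted on 4× images after 5 days of treatment, and values are medians of duplicate plates.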

First: NCI-H520
Second: NCI-H2126
The relative viability of the first is higher: 0.587 for the first, 0.572 for the second.

Going from EMC-BAC-2 to NCI-H2085, the relative viability falls from 0.944 to 0.534.

Compared with HCC-366, NCI-H1666 is higher in relative viability: 0.517 for the first, 0.652 for the second.

First: NCI-H596
Second: LK-2
The relative viability of the first is higher: 1.12 for the first, 0.278 for the second.

Going from NCI-H2087 to SK-MES-1, the relative viability rises from 0.251 to 0.4.

Going from H3255 to COR-L23, the relative viability falls from 0.667 to 0.309.

Going from COR-L 105 to LOU-NH91, the relative viability rises from 0.653 to 0.84.

Compared with ChaGo-K-1, NCI-H2170 is lower in relative viability: 0.549 for the first, 0.45 for the second.

compound: NCC(=O)Nc1ccc(-n2nc(C(F)(F)F)cc2-c2ccc3c(ccc4ccccc43)c2)cc1 + COc1cc2c(Oc3ccc(NC(=O)C4(C(=O)Nc5ccc(F)cc5)CC4)cc3F)ccnc2cc1OCCCN1CCOCC1 [Foretinib] (partner 0.25 µM); test: as above; conditions: first compound 0.02 µM
Method in brief: as §1

First: NCI-H520
Second: NCI-H2126
The relative viability of the first is lower: 0.852 for the first, 1.23 for the second.

First: EMC-BAC-2
Second: NCI-H2085
The relative viability of the first is lower: 0.957 for the first, 1.02 for the second.

First: HCC-366
Second: NCI-H1666
The relative viability of the first is lower: 0.918 for the first, 0.975 for the second.

Compared with NCI-H596, LK-2 is lower in relative viability: 0.956 for the first, 0.93 for the second.

First: NCI-H2087
Second: SK-MES-1
The relative viability of the first is higher: 0.981 for the first, 0.955 for the second.

Going from H3255 to COR-L23, the relative viability rises from 0.823 to 0.982.

Compared with COR-L 105, LOU-NH91 is lower in relative viability: 1.15 for the first, 0.994 for the second.

Compared with ChaGo-K-1, NCI-H2170 is higher in relative viability: 0.866 for the first, 0.995 for the second.

same assay, conditions: first compound 0.06325 µM

Going from NCI-H520 to NCI-H2126, the relative viability rises from 0.831 to 1.1.

Compared with EMC-BAC-2, NCI-H2085 is higher in relative viability: 0.966 for the first, 1.05 for the second.

Going from HCC-366 to NCI-H1666, the relative viability rises from 0.911 to 1.01.

Going from NCI-H596 to LK-2, the relative viability rises from 0.796 to 1.35.

Compared with NCI-H2087, SK-MES-1 is lower in relative viability: 0.992 for the first, 0.896 for the second.

Going from H3255 to COR-L23, the relative viability falls from 1.04 to 0.912.

Going from COR-L 105 to LOU-NH91, the relative viability falls from 1.26 to 0.959.

First: ChaGo-K-1
Second: NCI-H2170
The relative viability of the first is lower: 0.956 for the first, 0.975 for the second.

same assay, conditions: first compound 0.2 µM

Going from NCI-H520 to NCI-H2126, the relative viability rises from 0.677 to 1.3.

Compared with EMC-BAC-2, NCI-H2085 is higher in relative viability: 1.02 for the first, 1.07 for the second.

Compared with HCC-366, NCI-H1666 is higher in relative viability: 0.984 for the first, 0.998 for the second.

Going from NCI-H596 to LK-2, the relative viability rises from 0.724 to 1.35.

First: NCI-H2087
Second: SK-MES-1
The relative viability of the first is higher: 1.23 for the first, 0.995 for the second.

Compared with H3255, COR-L23 is higher in relative viability: 0.858 for the first, 1.13 for the second.

First: COR-L 105
Second: LOU-NH91
The relative viability of the first is higher: 1.14 for the first, 0.965 for the second.

Compared with ChaGo-K-1, NCI-H2170 is higher in relative viability: 0.847 for the first, 1.04 for the second.

same assay, conditions: first compound 0.6325 µM

First: NCI-H520
Second: NCI-H2126
The relative viability of the first is lower: 0.725 for the first, 1.08 for the second.

First: EMC-BAC-2
Second: NCI-H2085
The relative viability of the first is higher: 1.09 for the first, 0.812 for the second.

First: HCC-366
Second: NCI-H1666
The relative viability of the first is lower: 0.924 for the first, 0.963 for the second.

Going from NCI-H596 to LK-2, the relative viability rises from 0.9 to 1.37.

Compared with NCI-H2087, SK-MES-1 is lower in relative viability: 1.11 for the first, 0.959 for the second.

First: H3255
Second: COR-L23
The relative viability of the first is higher: 1.11 for the first, 1.04 for the second.

Compared with COR-L 105, LOU-NH91 is lower in relative viability: 0.985 for the first, 0.929 for the second.

First: ChaGo-K-1
Second: NCI-H2170
The relative viability of the first is lower: 0.937 for the first, 0.985 for the second.

same assay, conditions: first compound 2 µM

Compared with NCI-H520, NCI-H2126 is higher in relative viability: 0.917 for the first, 1.11 for the second.

First: EMC-BAC-2
Second: NCI-H2085
The relative viability of the first is lower: 1.05 for the first, 1.1 for the second.

Going from HCC-366 to NCI-H1666, the relative viability falls from 0.992 to 0.932.

Compared with NCI-H596, LK-2 is higher in relative viability: 0.885 for the first, 1.39 for the second.

Compared with NCI-H2087, SK-MES-1 is lower in relative viability: 1.15 for the first, 1.06 for the second.

Compared with H3255, COR-L23 is higher in relative viability: 0.89 for the first, 0.973 for the second.

Going from COR-L 105 to LOU-NH91, the relative viability falls from 1.04 to 1.01.

Compared with ChaGo-K-1, NCI-H2170 is higher in relative viability: 0.77 for the first, 1.02 for the second.

compound: C1CSC2=C(C(=O)N1)SC3=C2C=C(C=C3)O [kb NB 142-70] + O=C(c1cc(Cc2n[nH]c(=O)c3ccccc23)ccc1F)N1CCN(C(=O)C2CC2)CC1 [Olaparib] (partner 8 µM); test: as above; conditions: first compound 0.1 µM
Method in brief: as §1

Going from NCI-H520 to NCI-H2126, the relative viability rises from 0.377 to 0.928.

Going from EMC-BAC-2 to NCI-H2085, the relative viability rises from 0.531 to 0.742.

Going from HCC-366 to NCI-H1666, the relative viability rises from 0.371 to 0.73.

First: NCI-H596
Second: LK-2
The relative viability of the first is lower: 0.658 for the first, 0.822 for the second.

Going from NCI-H2087 to SK-MES-1, the relative viability rises from 0.506 to 0.719.

Compared with H3255, COR-L23 is lower in relative viability: 0.559 for the first, 0.344 for the second.

Going from COR-L 105 to LOU-NH91, the relative viability rises from 0.82 to 0.879.

Compared with ChaGo-K-1, NCI-H2170 is higher in relative viability: 0.489 for the first, 0.661 for the second.

same assay, conditions: first compound 1 µM

Going from NCI-H520 to NCI-H2126, the relative viability rises from 0.35 to 0.899.

Going from EMC-BAC-2 to NCI-H2085, the relative viability rises from 0.505 to 0.727.

First: HCC-366
Second: NCI-H1666
The relative viability of the first is lower: 0.509 for the first, 0.78 for the second.

Going from NCI-H596 to LK-2, the relative viability falls from 0.579 to 0.551.

Compared with NCI-H2087, SK-MES-1 is lower in relative viability: 0.589 for the first, 0.484 for the second.

First: H3255
Second: COR-L23
The relative viability of the first is higher: 0.577 for the first, 0.442 for the second.

First: COR-L 105
Second: LOU-NH91
The relative viability of the first is lower: 0.637 for the first, 0.917 for the second.

Compared with ChaGo-K-1, NCI-H2170 is higher in relative viability: 0.361 for the first, 0.596 for the second.

same assay, conditions: first compound 3.162 µM

Compared with NCI-H520, NCI-H2126 is higher in relative viability: 0.228 for the first, 0.816 for the second.

Compared with EMC-BAC-2, NCI-H2085 is higher in relative viability: 0.384 for the first, 0.487 for the second.

First: HCC-366
Second: NCI-H1666
The relative viability of the first is lower: 0.443 for the first, 0.823 for the second.

First: NCI-H596
Second: LK-2
The relative viability of the first is higher: 0.788 for the first, 0.323 for the second.

Compared with NCI-H2087, SK-MES-1 is lower in relative viability: 0.411 for the first, 0.181 for the second.

Going from H3255 to COR-L23, the relative viability falls from 0.604 to 0.263.

Going from COR-L 105 to LOU-NH91, the relative viability falls from 0.726 to 0.552.

Compared with ChaGo-K-1, NCI-H2170 is higher in relative viability: 0.362 for the first, 0.543 for the second.
